Assays:
[1] = target: Retinoic acid receptor gamma (Homo sapiens) (UniProt P13631); test: Binding affinity against retinoic acid receptor gamma by [3H]ATRA displacement.
[2] = target: Retinoic acid receptor beta (Homo sapiens) (UniProt P10826); test: Binding affinity against retinoic acid receptor beta by [3H]ATRA displacement.
Chain of Retinoic acid receptor beta (Homo sapiens) (P10826 whole entry, looked up): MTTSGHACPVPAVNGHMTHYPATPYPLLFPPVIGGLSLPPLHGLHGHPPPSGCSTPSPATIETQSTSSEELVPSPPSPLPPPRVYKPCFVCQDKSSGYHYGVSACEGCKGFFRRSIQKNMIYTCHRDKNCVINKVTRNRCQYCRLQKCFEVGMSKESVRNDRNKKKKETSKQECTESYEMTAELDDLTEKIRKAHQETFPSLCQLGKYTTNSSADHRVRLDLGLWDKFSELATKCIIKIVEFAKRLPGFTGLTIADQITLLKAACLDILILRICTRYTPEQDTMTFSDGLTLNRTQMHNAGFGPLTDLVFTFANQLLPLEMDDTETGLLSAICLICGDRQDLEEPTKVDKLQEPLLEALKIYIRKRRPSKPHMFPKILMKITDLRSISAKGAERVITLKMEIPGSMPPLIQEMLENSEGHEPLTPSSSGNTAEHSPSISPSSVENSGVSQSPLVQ

Chain of Retinoic acid receptor gamma (Homo sapiens) (P13631 whole entry, looked up): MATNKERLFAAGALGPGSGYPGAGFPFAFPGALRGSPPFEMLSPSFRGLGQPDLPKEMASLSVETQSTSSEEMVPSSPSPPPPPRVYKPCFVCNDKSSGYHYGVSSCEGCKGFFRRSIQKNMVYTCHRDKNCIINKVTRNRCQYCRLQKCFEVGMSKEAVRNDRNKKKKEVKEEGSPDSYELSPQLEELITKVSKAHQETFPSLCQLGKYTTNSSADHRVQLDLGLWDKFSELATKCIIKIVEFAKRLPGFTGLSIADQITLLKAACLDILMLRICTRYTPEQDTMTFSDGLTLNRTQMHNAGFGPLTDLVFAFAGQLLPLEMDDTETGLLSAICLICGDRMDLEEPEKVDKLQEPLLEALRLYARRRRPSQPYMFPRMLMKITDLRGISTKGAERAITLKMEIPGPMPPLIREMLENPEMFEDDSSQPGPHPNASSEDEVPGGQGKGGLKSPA

Compound | Ki [1] [µM] | Ki [2] [µM]
C/C(=C/C=C/C(C)=C/C(=O)O)c1cc(C(C)(C)C)cc(C(C)(C)C)c1OCC(F)F [7-[3,5-Di-tert-butyl-2-(2,2-difluoro-ethoxy)-phenyl]-3-methyl-octa-2,4,6-trienoic acid] | > 1 | > 1
CCCCCCCOc1c(-c2cccc3sc(/C(C)=C/C(=O)O)cc23)cc(C(C)(C)C)cc1C(C)(C)C [(E)-3-[4-(3,5-Di-tert-butyl-2-heptyloxy-phenyl)-benzo[b]thiophen-2-yl]-but-2-enoic acid] | > 10 | > 10
CCCOc1c(-c2cccc3sc(/C(C)=C/C(=O)O)cc23)cc(C(C)C)cc1C(C)C [(E)-3-[4-(3,5-Diisopropyl-2-propoxy-phenyl)-benzo[b]thiophen-2-yl]-but-2-enoic acid] | > 10 | > 10
CCOc1c(-c2cccc3cc(/C(C)=C/C(=O)O)oc23)cc(C(C)C)cc1C(C)C [(E)-3-[7-(2-Ethoxy-3,5-diisopropyl-phenyl)-benzofuran-2-yl]-but-2-enoic acid] | > 10 | > 10
CCCOc1c(-c2cccc3cc(/C(C)=C/C(=O)O)oc23)cc(C(C)C)cc1C(C)C [(E)-3-[7-(3,5-Diisopropyl-2-propoxy-phenyl)-benzofuran-2-yl]-but-2-enoic acid] | > 10 | 9.2
C/C(=C\C(=O)O)c1cc2c(-c3cc(C(C)(C)C)cc(C(C)(C)C)c3OCC(F)(F)F)cccc2s1 [(E)-3-{4-[3,5-Di-tert-butyl-2-(2,2,2-trifluoro-ethoxy)-phenyl]-benzo[b]thiophen-2-yl}-but-2-enoic acid] | > 10 | > 10
C/C(=C\C(=O)O)c1cc2c(-c3cc(C(C)(C)C)cc(C(C)(C)C)c3OCCC(F)F)cccc2s1 [(E)-3-{4-[3,5-Di-tert-butyl-2-(3,3-difluoro-propoxy)-phenyl]-benzo[b]thiophen-2-yl}-but-2-enoic acid] | > 10 | > 10
C/C(=C\C(=O)O)c1cc2cccc(-c3cc(C(C)C)cc(C(C)C)c3OCCCF)c2o1 [(E)-3-{7-[2-(3-Fluoro-propoxy)-3,5-diisopropyl-phenyl]-benzofuran-2-yl}-but-2-enoic acid] | > 10 | > 10
C/C(=C\C(=O)O)c1cc2cccc(-c3cc(C(C)C)cc(C(C)C)c3OCC(F)(F)F)c2o1 [(E)-3-{7-[3,5-Diisopropyl-2-(2,2,2-trifluoro-ethoxy)-phenyl]-benzofuran-2-yl}-but-2-enoic acid] | > 10 | 2.7
CCCCOc1c(-c2cccc3cc(/C(C)=C(\F)C(=O)O)oc23)cc(C(C)C)cc1C(C)C [(Z)-3-[7-(2-Butoxy-3,5-diisopropyl-phenyl)-benzofuran-2-yl]-2-fluoro-but-2-enoic acid] | > 10 | > 10
C/C(=C(/F)C(=O)O)c1cc2cccc(-c3cc(C(C)C)cc(C(C)C)c3OCC(F)F)c2o1 [(Z)-3-{7-[2-(2,2-Difluoro-ethoxy)-3,5-diisopropyl-phenyl]-benzofuran-2-yl}-2-fluoro-but-2-enoic acid] | > 10 | > 10

Continued, values first:

Ki [1] [µM] | Ki [2] [µM] | Compound
10 | 5.94 | CCOc1c(-c2cccc3sc(/C(C)=C/C(=O)O)cc23)cc(C(C)C)cc1C(C)C [(E)-3-[4-(2-Ethoxy-3,5-diisopropyl-phenyl)-benzo[b]thiophen-2-yl]-but-2-enoic acid]
> 10 | > 10 | C/C(=C\C(=O)O)c1cc2c(-c3cc(C(C)(C)C)cc(C(C)(C)C)c3C)cccc2s1 [(E)-3-[4-(3,5-Di-tert-butyl-2-methyl-phenyl)-benzo[b]thiophen-2-yl]-but-2-enoic acid]
> 10 | – | CCOc1c(-c2cccc3cc(/C(C)=C/C(=O)O)sc23)cc(C(C)C)cc1C(C)C [(E)-3-[7-(2-Ethoxy-3,5-diisopropyl-phenyl)-benzo[b]thiophen-2-yl]-but-2-enoic acid]
> 10 | > 10 | C/C(=C\C(=O)O)c1cc2c(-c3cc(C(C)(C)C)cc(C(C)(C)C)c3OCC(F)F)cccc2s1 [(E)-3-{4-[3,5-Di-tert-butyl-2-(2,2-difluoro-ethoxy)-phenyl]-benzo[b]thiophen-2-yl}-but-2-enoic acid]
> 10 | > 10 | C/C(=C\C(=O)O)c1cc2c(-c3cc(C(C)(C)C)cc(C(C)(C)C)c3OCCCF)cccc2s1 [(E)-3-{4-[3,5-Di-tert-butyl-2-(3-fluoro-propoxy)-phenyl]-benzo[b]thiophen-2-yl}-but-2-enoic acid]
> 10 | > 10 | C/C(=C\C(=O)O)c1cc2cccc(-c3cc(C(C)C)cc(C(C)C)c3OCC(F)F)c2o1 [(E)-3-{7-[2-(2,2-Difluoro-ethoxy)-3,5-diisopropyl-phenyl]-benzofuran-2-yl}-but-2-enoic acid]
